From patent US20100068743A1, “Method for predicting response of cancer patient to anticancer drug treatment” (John Wayne Cancer Institute and Sysmex Corporation, priority 2008, published 2010)

What was measured:
[1] = tested on: malignant tumors of breast cancer patients; assay: Pathological complete response (pCR) attained by chemotherapy in breast cancer patients; type: in vivo, human; conditions: individual breast cancer patient, after chemotherapy regimen; 1 = pathological complete response
Description: For breast cancer patients listed in Table 3 shown below, CDK1 expression level, CDK1 active value, CDK2 expression level, CDK2 active value of malignant tumors collected by needle biopsy before receiving chemotherapy are measured, and CDK1 specific activity and CDK2 specific activity are obtained. Further for each of patients shown in Table 3, whether or not pathological complete response (pCR) has been attained by the chemotherapy is shown in Table 3. In the column “pCR” in Table 3, “1” denotes pathological complete response.

[2] = tested on: tumor tissue of breast cancer patients; assay: Reduction rate of tumor after chemotherapy (tumor size before and after) in breast cancer patients; type: in vivo, human; conditions: individual breast cancer patient, after receiving the chemotherapy prescribed in the regimen
Description: Next, CDK1 expression level, CDK1 active value, CDK2 expression level, CDK2 active value of malignant tumors collected by needle biopsy from breast cancer patients before receiving chemotherapy are measured, and CDK1 specific activity and CDK2 specific activity are obtained. Meanwhile, the reduction rate of tumor is obtained by measuring a size of tumor tissue of each patient before and after the chemotherapy. In Table 1, CDK1 SA denotes CDK1 specific activity, CDK2SA denotes CDK2 specific activity, […] denotes cell cycle profile score, and reduction rate of tumor denotes reduction rate of tumors after receiving the chemotherapy prescribed in the regimen. In the column of the regimen, “wT” means paclitaxel, “FEC” means fluorouracil, cyclophosphamide, epirubicin, “CE” means cyclophosphamide, epirubicin, “Doce” means docetaxel, “ZL” means zoladex, “TM” means tamoxifen, and “UFT” means uracil, tegafur.

`CC(=O)O[C@H]1C(=O)[C@@]2(C)[C@H]([C@H](OC(=O)c3ccccc3)[C@]3(O)C[C@H](OC(=O)[C@H](O)[C@@H](NC(=O)c4ccccc4)c4ccccc4)C(C)=C1C3(C)C)[C@]1(OC(C)=O)CO[C@@H]1C[C@@H]2O` [wT, paclitaxel] was tested, and the pCR [1] was 0 and the “Reduction rate of tumor” value [2] was 70%.
